This is an account of results in patent publication US5571786A, “Use of protein C or the activation peptide of protein C for preparing a pharmaceutical preparation” (Immuno Aktiengesellschaft, priority 1990, dated 1996).

Values joined by “and” are separate entries in the source; they are usually repeats but may differ in a detail not shown here. Equal values may be shown once.

For one series, the system named is inflamed rat paw model. Put plainly: inflamed rat paw model: pain threshold after local carrageenan (Randall and Selitto). Format: in vivo. The following applies: for Pain threshold: 3 hrs after carrageenan, protein C 800 U/kg; for antagonism of the anti-nociceptive effect of protein C: β-blocking agent given with protein C. From the text: See, Kirchhoff et al., Neuroscience Lett. 111:206-210 (1990). Subcutaneous administration of carrageenan into the rat paw produces an inflammatory edema characterized by infiltration of neutrophils, plasma extravasation, release and synthesis of histamine, bradykinins and prostaglandin E2. Id. As such, the rat paw is a recognized model of the inflammatory process and may be utilized for studying the nociceptive effects attendant thereto. Id. Thus, the rat paw provides a recognized model for evaluating the anti-nociceptive effects of protein C and/or the activation peptide of protein C according to the present invention.
The pain threshold was measured in a manner analogous to the method described by Randall and Selitto (Randall LO and Selitto JJ: A method for measurement of analgesic activity on inflamed tissue, Arch. Int. Pharmacodyn. 111, 409-419, 1957). To this end, a mercury manometer was connected to a 10 ml syringe whose plunger was equipped with a short bullet-shaped peg. Increasing pressure was applied to the rat's paw through this syringe (20 mmHg/s). The pain threshold was defined as the pressure in mmHg required to induce a flight (struggle) reaction.
Female Sprague-Dawley rats weighing between 250 and 350 g were used. Inflammation was produced by the intraplanter (i.pl.) injection of 3 mg carrageenan (Sigma Chemical Co., Cat. No., C-1013) suspended in 100 μl isotonic saline solution (0.9%) into the rat's paw.
The pain threshold was measured before (control value) and every hour up to six hours after the injection of carrageenan. The pain threshold measured after carrageenan injection was expressed in percent of the control value.
Unless otherwise specified, protein C was intravenously injected into a vein of the tail immediately upon the carrageenan injection. The injection volume was 2 ml/kg.
A dose response curve for protein C administered i.v. and protein C (i.v.) immediately followed by a solution of 1 mg/kg antibody HPC-4 (i.v.) was determined. The experiments were carried out essentially as set forth in Example 4.
The anti-nociceptive effects of the activation peptide of protein C (SEQ. ID. NO. 1) prepared as described in Example 7 were determined essentially as described in Examples 4 and 6. In the test animals, the […], each, in a constant injection volume of 2 ml/kg, simultaneously with intraplantar (i.pl.) administration of carrageenan into the rat's paw to induce an inflammatory response and pain. In a second set of test animals, antibody HPC-4 (1 mg/kg) was administered i.v. immediately following i.v. administration of the peptide (SEQ. ID. NO. 1). The anti-nociceptive effects of the peptide (SEQ. ID. NO. 1) administration and antagonism thereof by antibody HPC-4 as measured 6 hours later are shown in FIG. 3.

The nature of series [1]: protein C activity, aminolytic assay after activation by Protac. In kind it is biochemical. As to conditions: finished lyophilized preparation; 1 unit = protein C activity in 1 ml normal plasma. The protocol:
The prothrombin complex concentrate was dissolved in the absorption buffer of Example 1, with about 10 g of the prothrombin complex concentrate being employed for a 20 ml monoclonal antibody column. Subsequently, the dissolved prothrombin complex concentrate was filtered, centrifuged at 20,000 r.p.m. for 15 min. and sterilely filtered through a 0.8 μm filter. The sterilely filtered and dissolved prothrombin complex concentrate was applied to the column at a flow rate of 10 ml/h. Subsequently, the column was washed free of protein with the washing buffer of Example 1, the bound protein C was eluted by means of the elution buffer of Example 1 at a flow rate of 5 ml/h and the fractions containing eluted protein C were collected and pooled. The eluted protein C was dialyzed against a buffer (0.2 mol/1 Tris, 0.15 mol glycine and 1 mmol EDTA, pH 8.3). Protein C antigen concentration was determined using the method described by Laurell, and protein C activity was determined using Protac activation.
The lyophilized, virus inactivated material was then dissolved in a sterile isotonic NaCl solution and any antibodies or serum amyloid P potentially present in the preparation were eliminated by means of ion exchange chromatography on a Q-Sepharose column. […] Neither murine immunoglobulin nor Factors II, VII, IX and X could be detected. […]

Series [2] deals with thrombin-induced enhanced vascular permeability. Put plainly: thrombin-induced enhanced vascular permeability (Evan's Blue wheals). Format: in vivo, guinea pigs. The procedure: (§1) The effect of protein C on capillary leakage in guinea pigs was studied in order to confirm the efficacy of protein C in antagonizing enhanced vessel permeability in anesthetized guinea pigs. The study was carried out as follows:
(§2) After intravenous administration of Evan's Blue, anesthetized guinea pigs received either a protein C concentrate or a formulation buffer. Thereafter, the test animals were treated with histamine or thrombin intracutaneously to induce enhanced vessel permeability, or with saline as a control. The animals were then examined visually for the occurrence of discoloration of the resulting wheals. The results are depicted in FIG. 4 (histamine treatment, protein C or saline), FIG. 5 (thrombin treatment, protein C or saline) and FIG. 6 (thrombin treatment, buffer or saline).
(§3) In these studies, a colorless wheal was recorded as a negative observation (i.e., no disturbance in permeability), whereas a blue skin coloration at the injection site was defined as a positive observation (i.e. increased vessel permeability). The percentage of positive wheals among total wheals produced by the same substance and does within each group of treated animals (n=12 per treatment group) was calculated. […]

Series [3] relates to histamine-induced enhanced vascular permeability. The experiment in a line: histamine-induced enhanced vascular permeability (Evan's Blue wheals). Format: in vivo, guinea pigs. The procedure: as §1, §2, §3
For another series, the system named is perivascular leukocytes. The experiment in a line: histological examination of the rat paws. In kind it is in vivo. As to conditions: rat paws after protein C, compared to untreated animals. The text has this: Thus, protein C appears to have an effect on vessel permeability, which allows the migration of leukocytes through the blood vessel into the perivascular region.

Another series concerns endotoxin shock. The following applies: Taylor et al. 1987; cited from earlier work.
A further series concerns coronary blood flow. The following applies: intracoronary administration; cited from earlier work.
Series [4] concerns thrombus formation on prosthetic vascular grafts. The following applies: infusion; Gruber et al. 1989; cited from earlier work.

For “protein C: Highly purified human protein C zymogen from prothrombin complex concentrate, purified by monoclonal antibody affinity chromatography, virus inactivated”, the Pain threshold in the series on inflamed rat paw model (% of the pain threshold (control value)) is 65 ± 2.0% and 60 ± 6%; with inflamed rat paw model (animals treated with reserpine and alpha-methyl-p-tyrosine) it was 106.7 ± 18.1%. The anti-nociceptive effect result in the series with inflamed rat paw model (protein C i.v. immediately upon carrageenan, 8 to 800 U/kg, FIG. 1) is “significant, dose-dependent anti-nociceptive effect”; in the series with inflamed rat paw model (subcutaneous administration), “also detectable with subcutaneous administration”. Moreover, the “signs of inflammation, such as oedema” value with inflamed rat paw model (protein C intravenously, carrageenan intraplantar) is listed as “signs of inflammation, such as oedema, were reduced”. Further, the “anti-nociceptive effect after chemical sympathectomy” value in the series on inflamed rat paw model (reserpine 7.5 mg/kg i.p. and alpha-methyl-p-tyrosine 250 mg/kg i.p.) is given as “still acts as a highly effective anti-nociceptive”. For the same compound, the specific activity in series [1] turned out to be 14 units protein C per mg. Also, the “shift of the thrombin dose-response curve to the right (factor)” value in series [2] (800 IU protein C/Kg i.v., % positive wheals, FIG. 5) is recorded as 9. Further, the “effect on thrombin-increased endothelial permeability” value in series [2] (pretreatment with protein C) was “effective in preventing the effects of both histamine and thrombin on increased endothelial permeability”. Moreover, the “shift of the histamine dose-response curve to the right (factor)” value in series [3] (800 IU protein C/Kg i.v., % positive wheals, FIG. 4) is reported as 4. Besides, the “effect on histamine-increased endothelial permeability” value in series [3] (pretreatment with protein C) is “effective in preventing the effects of both histamine and thrombin on increased endothelial permeability”. In the series with perivascular leukocytes, the “number of perivascular leukocytes” value is “reduced number of perivascular leukocytes compared to the untreated animals”.

In the case of “NH2 -Asp-Thr-Glu-Asp-Gln-Glu-Asp-Gln-Val-Asp-Pro-Arg-COOH (H-DTEDQEDQVDPR-OH) [activation peptide of protein C]”, in the series with inflamed rat paw model (peptide i.v. 3.125 to 100 μg/kg, measured 6 hours later, FIG. 3), the anti-nociceptive effect entry is “has an anti-nociceptive effect”.

For `CC(Cc1ccc(O)cc1)NCC(O)c1cc(O)cc(O)c1` (centres unmarked) [fenoterol, reference compound], the anti-nociceptive effect result in the series with inflamed rat paw model (i.v., either 5 mg/kg at the beginning of the assay or 3 mg/kg at the 3 hr time point) is reported as “marked anti-nociceptive effect”.

Turning to `CC(C)NCC(O)COc1cccc2ccccc12` (centres unmarked) [propranolol, reference compound], the “antagonism of the anti-nociceptive effect of protein C” value in the series on inflamed rat paw model was “antagonizes the anti-nociceptive effect of protein C”.

As to `CC(C)NCC(O)COc1cccc2[nH]ccc12` (centres unmarked) [pindolol, reference compound], the “antagonism of the effect of protein C in sympathectomized animals” value with inflamed rat paw model (reserpine and alpha-methyl-p-tyrosine treated) is “completely antagonizes the effect of protein C”. The “antagonism of the anti-nociceptive effect of protein C” value in the series on inflamed rat paw model is given as “antagonize the effect of protein C in a dose-dependent manner”.

In the case of activated protein C, the “protection against coagulopathic and lethal effects of endotoxin shock” value with endotoxin shock was “protect animals against the coagulopathic and lethal effects of endotoxin shock”. In addition, the coronary blood flow entry with coronary blood flow is reported as “increase in coronary blood flow”. The thrombotic occlusion entry in series [4] is on record as “Thrombotic occlusion was prevented”.
